From patent publication US10647713B2 (Nimbus Lakshmi, Inc., priority 2016, dated 2020)

biological target: human TYK2 (JH2domain-pseudokinase) (Homo sapiens (Human), UniProt P29597); assay: TYK2 JH2 Domain Binding Assay (KINOMEscan, DiscoveRx); details: 11-point dilution, duplicate
Summary of the method: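 Kd from duplicate 11-point 3-fold dilutions starting at 30,000 nM, fitted by Hill equation with slope fixed at −1. Compounds (final 0.9% DMSO) displace DNA-tagged HEK293-expressed TYK2 JH2 fusion (<0.1 nM) from ligand-coated beads over 1 h at room temperature; eluted kinase read by qPCR.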

Sequence of human TYK2 (JH2domain-pseudokinase) (P29597 556-888): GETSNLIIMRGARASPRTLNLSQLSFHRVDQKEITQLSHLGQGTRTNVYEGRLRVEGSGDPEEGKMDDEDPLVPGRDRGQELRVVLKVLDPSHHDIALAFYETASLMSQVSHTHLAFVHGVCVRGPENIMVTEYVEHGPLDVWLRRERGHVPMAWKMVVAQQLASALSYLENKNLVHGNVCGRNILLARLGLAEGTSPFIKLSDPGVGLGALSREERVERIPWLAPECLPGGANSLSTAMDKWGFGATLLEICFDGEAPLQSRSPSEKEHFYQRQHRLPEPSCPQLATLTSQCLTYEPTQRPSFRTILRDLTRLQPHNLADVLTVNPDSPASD

Row | SMILES | Kd [nM]
1 | Cc1ccc(Nc2cc(NC(=O)C3CC3)nc3[nH]c(C(F)F)nc23)c(N(C)S(C)(=O)=O)c1 [I-95, N-(2-(difluoromethyl)-7-((4-methyl-2-(N-methylmethylsulfonamido)phenyl)amino)-3H-imidazo[4,5-b]pyridin-5-yl)cyclopropanecarboxamide] | 0.1 to 0.5
2 | COCc1ccc(Nc2cc(NC(=O)C3CC3)nc3[nH]c(C(F)F)nc23)c(N(C)S(C)(=O)=O)c1 [I-96, N-(2-(difluoromethyl)-7-((4-(methoxymethyl)-2-(N-methylmethylsulfonamido)phenyl)amino)-3H-imidazo[4,5-b]pyridin-5-yl)cyclopropanecarboxamide] | 0.1 to 0.5
3 | Cc1ccc(Nc2cc(Nc3cnc(C)c(C)n3)nc3[nH]c(C(F)F)nc23)c(N(C)S(C)(=O)=O)c1 [I-97, N-(2-((2-(difluoromethyl)-5-((5,6-dimethylpyrazin-2-yl)amino)-3H-imidazo[4,5-b]pyridin-7-yl)amino)-5-methylphenyl)-N-methylmethanesulfonamide] | > 10
4 | COc1c(Nc2cc(NC(=O)C3CC3)nc3[nH]c(C)nc23)cccc1-c1nnn(C)n1 [I-98, N-(7-((2-methoxy-3-(2-methyl-2H-tetrazol-5-yl)phenyl)amino)-2-methyl-3H-imidazo[4,5-b]pyridin-5-yl)cyclopropanecarboxamide] | 0.5 to 1
5 | COc1c(Nc2cc(Nc3ccc(C)nn3)nc3[nH]c(C)nc23)cccc1-c1nnn(C)n1 [I-100, N-7-(2-methoxy-3-(2-methyl-2H-tetrazol-5-yl)phenyl)-2-methyl-N5-(6-methylpyridazin-3-yl)-3H-imidazo[4,5-b]pyridine-5,7-diamine] | 0.1 to 0.5
6 | COc1c(Nc2cc(Nc3ccc(C)cn3)nc3[nH]c(C)nc23)cccc1-c1nnn(C)n1 [I-101, N7-(2-methoxy-3-(2-methyl-2H-tetrazol-5-yl)phenyl)-2-methyl-N5-(5-methylpyridin-2-yl)-3H-imidazo[4,5-b]pyridine-5,7-diamine] | 1 to 10
7 | COc1c(Cl)cccc1Nc1cc(NC(=O)C2CC2)nc2[nH]c(C)nc12 [I-103, N-(7-((3-chloro-2-methoxyphenyl)amino)-2-methyl-3H-imidazo[4,5-b]pyridin-5-yl)cyclopropanecarboxamide] | > 10
8 | COc1c(F)cccc1Nc1cc(NC(=O)C2CC2)nc2[nH]c(C)nc12 [I-104, N-(7-((3-fluoro-2-methoxyphenyl)amino)-2-methyl-3H-imidazo[4,5-b]pyridin-5-yl)cyclopropanecarboxamide] | > 10
9 | COc1c(C#N)cccc1Nc1cc(NC(=O)C2CC2)nc2[nH]c(C)nc12 [I-105, N-(7-((3-cyano-2-methoxyphenyl)amino)-2-methyl-3H-imidazo[4,5-b]pyridin-5-yl)cyclopropanecarboxamide] | > 10
10 | COc1ccccc1Nc1cc(NC(=O)C2CC2)nc2[nH]c(C)nc12 [I-106, N-(7-((2-methoxyphenyl)amino)-2-methyl-3H-imidazo[4,5-b]pyridin-5-yl)cyclopropanecarboxamide] | > 10
11 | COc1c(Nc2cc(NC(=O)C3CC3)nc3[nH]c(C)nc23)cccc1-c1cnn(C)c1 [I-107, N-(7-((2-methoxy-3-(1-methyl-1H-pyrazol-4-yl)phenyl)amino)-2-methyl-3H-imidazo[4,5-b]pyridin-5-yl)cyclopropanecarboxamide] | 1 to 10
12 | COc1c(Nc2cc(Nc3ccc(C(=O)N4CCCC4)c(C(F)(F)F)n3)nc3[nH]c(C)nc23)cccc1-c1nnn(C)n1 [I-108, (6-((7-((2-methoxy-3-(2-methyl-2H-tetrazol-5-yl)phenyl)amino)-2-methyl-3H-imidazo[4,5-b]pyridin-5-yl)amino)-2-(trifluoromethyl)pyridin-3-yl)(pyrrolidin-1-yl)methanone] | 0.1 to 0.5
13 | COc1c(Nc2cc(Nc3ccc(N4CCCC4=O)c(C#N)n3)nc3[nH]c(C)nc23)cccc1-c1nnn(C)n1 [I-109, 6-((7-((2-methoxy-3-(2-methyl-2H-tetrazol-5-yl)phenyl)amino)-2-methyl-3H-imidazo[4,5-b]pyridin-5-yl)amino)-3-(2-oxopyrrolidin-1-yl)picolinonitrile] | 0.1 to 0.5
14 | COc1cc(C(=O)N2CCCC2)ccc1Nc1cc(NC(=O)C2CC2)nc2[nH]c(C)nc12 [I-110, N-(7-((2-methoxy-4-(pyrrolidine-1-carbonyl)phenyl)amino)-2-methyl-3H-imidazo[4,5-b]pyridin-5-yl)cyclopropanecarboxamide] | 1 to 10
15 | COc1c(Nc2cc(Nc3cnc(C)c(C#N)n3)nc3[nH]c(C)nc23)cccc1-c1nnn(C)n1 [I-111, 6-((7-((2-methoxy-3-(2-methyl-2H-tetrazol-5-yl)phenyl)amino)-2-methyl-3H-imidazo[4,5-b]pyridin-5-yl)amino)-3-methylpyrazine-2-carbonitrile] | 1 to 10
16 | COc1c(Nc2cc(Nc3ccc(N4CC[C@H](OC)C4)c(C#N)n3)nc3[nH]c(C)nc23)cccc1-c1nnn(C)n1 [I-112, (S)-6-((7-((2-methoxy-3-(2-methyl-2H-tetrazol-5-yl)phenyl)amino)-2-methyl-3H-imidazo[4,5-b]pyridin-5-yl)amino)-3-(3-methoxypyrrolidin-1-yl)picolinonitrile] | 0.1 to 0.5

Row | SMILES | Kd [nM]
17 | COc1c(Nc2cc(Nc3ccc(N4CCC4)c(C#N)n3)nc3[nH]c(C)nc23)cccc1-c1nnn(C)n1 [I-113, 3-(azetidin-1-yl)-6-((7-((2-methoxy-3-(2-methyl-2H-tetrazol-5-yl)phenyl)amino)-2-methyl-3H-imidazo[4,5-b]pyridin-5-yl)amino)picolinonitrile] | 0.1 to 0.5
18 | COc1c(Nc2cc(NC(=O)C3CC3)nc3[nH]c(C)nc23)cccc1-c1nc(C)nn1C [I-114, N-(7-((3-(1,3-dimethyl-1H-1,2,4-triazol-5-yl)-2-methoxyphenyl)amino)-2-methyl-3H-imidazo[4,5-b]pyridin-5-yl)cyclopropanecarboxamide] | 1 to 10
19 | COc1c(Nc2cc(Nc3ccc(C(C)C)c(C#N)n3)nc3[nH]c(C)nc23)cccc1-c1nnn(C)n1 [I-115, 3-isopropyl-6-((7-((2-methoxy-3-(2-methyl-2H-tetrazol-5-yl)phenyl)amino)-2-methyl-3H-imidazo[4,5-b]pyridin-5-yl)amino)picolinonitrile] | 1 to 10
20 | COc1c(Nc2cc(Nc3cnc(N4CCOCC4)c(C#N)n3)nc3[nH]c(C)nc23)cccc1-c1nnn(C)n1 [I-116, 6-((7-((2-methoxy-3-(2-methyl-2H-tetrazol-5-yl)phenyl)amino)-2-methyl-3H-imidazo[4,5-b]pyridin-5-yl)amino)-3-morpholinopyrazine-2-carbonitrile] | 1 to 10
21 | COc1c(Nc2cc(Nc3cnc(N4CC[C@@H](OC)C4)c(C#N)n3)nc3[nH]c(C)nc23)cccc1-c1nnn(C)n1 [I-117, (R)-6-((7-((2-methoxy-3-(2-methyl-2H-tetrazol-5-yl)phenyl)amino)-2-methyl-3H-imidazo[4,5-b]pyridin-5-yl)amino)-3-(3-methoxypyrrolidin-1-yl)pyrazine-2-carbonitrile] | 1 to 10
22 | Cc1ccc(Nc2cc(Nc3ccccc3N(C)S(C)(=O)=O)c3nc(C)[nH]c3n2)nn1 [I-118, N-methyl-N-(2-((2-methyl-5-((6-methylpyridazin-3-yl)amino)-3H-imidazo[4,5-b]pyridin-7-yl)amino)phenyl)methanesulfonamide] | 0.1 to 0.5
23 | Cc1nc2c(Nc3ccccc3N(C)S(C)(=O)=O)cc(Nc3cccc(C#N)n3)nc2[nH]1 [I-120, N-(2-((5-((6-cyanopyridin-2-yl)amino)-2-methyl-3H-imidazo[4,5-b]pyridin-7-yl)amino)phenyl)-N-methylmethanesulfonamide] | < 0.1
24 | COC1CN(c2ccc(Nc3cc(NC(=O)C4CC4)nc4[nH]c(C)nc34)c(N(C)S(C)(=O)=O)c2)C1 [I-122, N-(7-((4-(3-methoxyazetidin-1-yl)-2-(N-methylmethylsulfonamido)phenyl)amino)-2-methyl-3H-imidazo[4,5-b]pyridin-5-yl)cyclopropanecarboxamide] | 1 to 10
25 | Cc1nc2c(Nc3ccccc3N(C)S(C)(=O)=O)cc(Nc3cnc(C)c(C)n3)nc2[nH]1 [I-123, N-(2-((5-((5,6-dimethylpyrazin-2-yl)amino)-2-methyl-3H-imidazo[4,5-b]pyridin-7-yl)amino)phenyl)-N-methylmethanesulfonamide] | 0.1 to 0.5
26 | Cc1cc(Nc2cc(Nc3ccccc3N(C)S(C)(=O)=O)c3nc(C)[nH]c3n2)nc(C)n1 [I-124, N-(2-((5-((2,6-dimethylpyrimidin-4-yl)amino)-2-methyl-3H-imidazo[4,5-b]-pyridin-7-yl)amino)phenyl)-N-methylmethanesulfonamide] | 0.1 to 0.5
27 | Cc1nc2c(Nc3ccccc3N(C)S(C)(=O)=O)cc(Nc3ccc(C)c(C#N)n3)nc2[nH]1 [I-125, N-(2-((5-((6-cyano-5-methylpyridin-2-yl)amino)-2-methyl-3H-imidazo[4,5-b]pyridin-7-yl)amino)phenyl)-N-methylmethanesulfonamide] | 0.1 to 0.5
28 | Cc1nc2c(Nc3ccc(Cl)cc3S(C)(=O)=O)cc(NC(=O)C3CC3)nc2[nH]1 [I-126, N-(7-((4-chloro-2-(methylsulfonyl)phenyl)amino)-2-methyl-3H-imidazo[4,5-b]pyridin-5-yl)cyclopropanecarboxamide] | 0.1 to 0.5
29 | Cc1nc2c(Nc3ccccc3N(C)S(C)(=O)=O)cc(Nc3cccc(C(F)(F)F)n3)nc2[nH]1 [I-127, N-methyl-N-(2-((2-methyl-5-((6-(trifluoromethyl)pyridin-2-yl)amino)-3H-imidazo[4,5-b]pyridin-7-yl)amino)phenyl)methanesulfonamide] | 0.1 to 0.5
30 | COc1c(Nc2cc(NC(=O)C3CC3)nc3[nH]c(C)nc23)cccc1-n1cnc(C)n1 [I-128, N-(7-((2-methoxy-3-(3-methyl-1H-1,2,4-triazol-1-yl)phenyl)amino)-2-methyl-3H-imidazo[4,5-b]pyridin-5-yl)cyclopropanecarboxamide] | 1 to 10
31 | Cc1nc2c(Nc3ccc(N4CCC4)cc3N(C)S(C)(=O)=O)cc(NC(=O)C3CC3)nc2[nH]1 [I-129, N-(7-((4-(azetidin-1-yl)-2-(N-methylmethylsulfonamido)phenyl)amino)-2-methyl-3H-imidazo[4,5-b]pyridin-5-yl)cyclopropanecarboxamide] | 1 to 10
